This passage reports IC50 results from patent US5075335A, “Guanidinobenzoic ester derivative” (Eisai Co., Ltd., priority 1985, dated 1991).

Holding throughout (assay type): biochemical
The subject of assay [1] is trypsin. The experiment in a line: Trypsin inhibition in vitro (hydrolysis of benzoyl-D,L-arginine-p-nitroanilide hydrochloride). Conditions: 0.5 μg/ml of trypsin, 25° C, read-out: 50% Inhibitory concentration (IC50) Trypsin. The method, then:
(§1) The effects of typical compounds of the present invention in inhibiting trypsin, plasmin and thrombin in vitro were examined. The trypsin-inhibiting effect was represented in terms of a molar concentration of the compound which inhibits the activity of 0.5 μg/ml of trypsin to hydrolyze benzoyl-D,L-arginine-p-nitroanilide hydrochloride by 50% at 25° C. In the determination of the plasmin- and thrombin-inhibiting effects, 50% inhibitory concentrations were determined by using H-D-Val-Leu-L-Lys-p-nitroanilide dihydrochloride and H-D-Phe-L-pipecolyl-L-Arg-p-nitroanilide dihydrochloride, respectively, as the substrate.

For assay [2], the target named is plasmin (Homo sapiens, UniProt P00747). The experiment in a line: Plasmin inhibition in vitro (substrate H-D-Val-Leu-L-Lys-p-nitroanilide dihydrochloride). To be noted: read-out: 50% Inhibitory concentration (IC50) Plasmin. The method, then: as §1
Sequence of plasmin (P00747 581-810 limits assumed, species assumed): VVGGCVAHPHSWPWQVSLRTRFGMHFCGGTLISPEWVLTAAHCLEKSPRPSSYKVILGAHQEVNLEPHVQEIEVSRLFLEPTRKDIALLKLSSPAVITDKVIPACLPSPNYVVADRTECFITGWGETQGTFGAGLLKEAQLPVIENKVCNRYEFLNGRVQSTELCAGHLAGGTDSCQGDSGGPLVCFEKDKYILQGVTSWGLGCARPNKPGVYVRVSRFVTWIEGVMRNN
Sequence of plasmin (P00747 97-580 partner limits assumed, species assumed): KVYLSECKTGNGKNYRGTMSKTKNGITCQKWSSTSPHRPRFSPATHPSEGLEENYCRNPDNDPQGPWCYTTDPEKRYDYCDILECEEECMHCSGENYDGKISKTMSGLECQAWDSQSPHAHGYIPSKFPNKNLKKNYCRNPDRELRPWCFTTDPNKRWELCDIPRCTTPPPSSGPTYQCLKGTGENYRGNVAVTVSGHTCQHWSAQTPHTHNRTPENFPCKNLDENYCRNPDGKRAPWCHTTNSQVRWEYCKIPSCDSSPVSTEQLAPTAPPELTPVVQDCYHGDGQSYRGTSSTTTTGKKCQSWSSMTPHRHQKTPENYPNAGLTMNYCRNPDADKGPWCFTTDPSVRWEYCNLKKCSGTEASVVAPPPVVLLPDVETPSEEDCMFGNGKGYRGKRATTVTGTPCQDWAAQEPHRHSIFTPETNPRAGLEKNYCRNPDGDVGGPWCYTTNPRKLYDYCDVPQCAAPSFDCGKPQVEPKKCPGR
Assay [3] concerns the target thrombin (Homo sapiens, UniProt P00734). The experiment in a line: Thrombin inhibition in vitro (substrate H-D-Phe-L-pipecolyl-L-Arg-p-nitroanilide dihydrochloride). Conditions: read-out: 50% Inhibitory concentration (IC50) Thrombin. As to the method:
as §1

In the case of `N=C(N)Nc1ccc(C(=O)Oc2ccc(SCCO)cc2)cc1` [A, 4-(2-hydroxyethylthio)phenyl 4-guanidinobenzoate methanesulfonate], the IC50 in assay [1] worked out at 43 nM; in assay [2], 1300 nM; in assay [3] it was 250 nM.
For the compound `N=C(N)Nc1ccc(C(=O)Oc2ccc(SCCN3C(=O)c4ccccc4C3=O)cc2)cc1` [H, 4-(2-phthalimidoethylthio)phenyl 4-guanidinobenzoate methanesulfonate], the IC50 in assay [1] was found to be 30 nM; in assay [2], 920 nM; in assay [3], 110 nM.
Taken in the same sequence, the figures for `N=C(N)Nc1ccc(C(=O)Oc2ccc(SCCCN3C(=O)CCC3=O)cc2)cc1` [D, 4-(3-succinimidopropylthio)phenyl 4-guanidinobenzoate methanesulfonate] were 59 nM, 1300 nM and 420 nM.
Taken in the same sequence, the figures for `CCOCCSc1ccc(OC(=O)c2ccc(NC(=N)N)cc2)cc1` [C, 4-(2-ethoxyethylthio)phenyl 4-guanidinobenzoate methanesulfonate] were 45 nM, 2200 nM and 350 nM.
`CC1(C)OC(=O)N(CCSc2ccc(OC(=O)c3ccc(NC(=N)N)cc3)cc2)C1=O` [I, 4-[2-(5,5-dimethyl-2,4-dioxooxazolidin-3-yl)ethylthio]phenyl 4-guanidinobenzoate methanesulfonate]: the IC50 in assay [1] amounted to 55 nM; in assay [2], 830 nM; in assay [3], 320 nM.
Take `N=C(N)Nc1ccc(C(=O)Oc2ccc(SCCCCCN3C(=O)CCC3=O)cc2)cc1` [F, 4-(5-succinimidopentylthio)phenyl 4-guanidinobenzoate methanesulfonate]: the IC50 in assay [1] amounted to 34 nM; in assay [2], 640 nM; in assay [3], 270 nM.
Turning to `N=C(N)Nc1ccc(C(=O)Oc2ccc(SCCN3C(=O)CCC3=O)cc2)cc1` [B, 4-(2-succinimidoethylthio)phenyl 4-guanidinobenzoate methanesulfonate], the IC50 in assay [1] is 47 nM; in assay [2], 950 nM; in assay [3], 530 nM.
With `N=C(N)Nc1ccc(C(=O)Oc2ccc(SCCN3C(=O)[C@H]4CCCC[C@H]4C3=O)cc2)cc1` [G, 4-[2-(cis-1,2-cyclohexanedicarboxyimido)-ethylthio]phenyl 4-guanidinobenzoate methanesulfonate], the figures for the IC50 in assay [1], in assay [2] and in assay [3] were 62 nM, 1000 nM and 160 nM, respectively.
Consider `N=C(N)Nc1ccc(C(=O)Oc2ccc(SCCCCN3C(=O)CCC3=O)cc2)cc1` [E, 4-(4-succinimidobutylthio)phenyl 4-guanidinobenzoate methanesulfonate], for which the IC50 was 22 nM in assay [1], 2300 nM in assay [2] and 570 nM in assay [3].
